According to patent US20060003948A1, “Compositions that include a triterpene and a carrier” (priority 2004, published 2006):

Key:
M. canis = experiment: Agar Dilution Method 2, M. canis; type: cell-based; conditions: 12th day of inoculation
Method: (§1) Sabourand Dextrose Agar was prepared according the manufacturers instructions and 5 ml was dispensed in 100×25 mm tubes and autoclaved for 121° C. for 15 minutes. To each tube containing 5 ml of liquid agar at 45° C., 4 mg/ml of test antifungal compound was added, subsequently each was solidified in […], and inoculated with fungal cultures. After incubation for 10-12 days at 25° C. to 28° C., the growth of the fungus was recorded every second day.

Microsporum canis = experiment: Agar Dilution Method 1, Microsporum canis; type: cell-based; parameters: key: +++ = Maximum Fungal Growth; ++ = Moderate Fungal Growth; + = Minimum Fungal Growth; +/− = Very little Fungal Growth; − = No Fungal Growth
Method: as §1, with “100 X 25” for “100×25”, “different concentrations” for “4 mg/ml”, “compound in DMSO” for “compound”, “day. The Minimum Inhibitory Concentration (MIC) was determined by the tube containing the lowest concentration of test compound which inhibited fungal growth. See, Table 1.” for “day.”

Pityrosporum ovale [1] = experiment: Agar Dilution Method 1, Pityrosporum ovale; type: cell-based; parameters: key: +++ = Maximum Fungal Growth; ++ = Moderate Fungal Growth; + = Minimum Fungal Growth; +/− = Very little Fungal Growth; − = No Fungal Growth
Method: as §1, with “100 X 25” for “100×25”, “different concentrations” for “4 mg/ml”, “compound in DMSO” for “compound”, “day. The Minimum Inhibitory Concentration (MIC) was determined by the tube containing the lowest concentration of test compound which inhibited fungal growth. See, Table 1.” for “day.”

T. tonsurans = experiment: Agar Dilution Method 2, T. tonsurans; type: cell-based; conditions: 12th day of inoculation
Method: as §1

M. audouinii = experiment: Agar Dilution Method 2, M. audouinii; type: cell-based; conditions: 12th day of inoculation
Method: as §1

Epidermophyton = experiment: Agar Dilution Method 1, Epidermophyton; type: cell-based; parameters: key: +++ = Maximum Fungal Growth; ++ = Moderate Fungal Growth; + = Minimum Fungal Growth; +/− = Very little Fungal Growth; − = No Fungal Growth
Method: as §1, with “100 X 25” for “100×25”, “different concentrations” for “4 mg/ml”, “compound in DMSO” for “compound”, “day. The Minimum Inhibitory Concentration (MIC) was determined by the tube containing the lowest concentration of test compound which inhibited fungal growth. See, Table 1.” for “day.”

Pityrosporum ovale [2] = experiment: Anti-Fungal Activity Against Pityrosporum ovale; type: cell-based; conditions: 4 mg/ml of test compound; 37° C. for 18 to 24 hours
Method: Betulin and its derivatives have low solubility in water, accordingly the stock solution of the test compounds were prepared in DMSO. The stock solutions for griseofulvin and nystatin were prepared in DMSO at a concentration of 10,000 μg/ml. The yeast Pityrosporum ovale (ATCC Rockville, Md.) was grown in Pityrosporum medium (ATCC Rockville, Md.) at 37° C. for 2-3 days. 5 ml of the medium was dispensed in 100×25 mm tubes and autoclaved at 121° C. for 15 minutes. To each tube at 45° C., 4 mg/ml of test compound was added and solidified in […], subsequently, each was inoculated with P. ovale and incubated at 37° C. for 18 to 24 hours.

[3] = cited from earlier work

Compound | Results using the Agar Dilution Method 2 in concentration, M. canis (M. canis) | Results using the Agar Dilution Method 2 in concentration, T. tonsurans (T. tonsurans) | Results using the Agar Dilution Method 2 in concentration, M. audouinii (M. audouinii) | growth of P. ovale (Pityrosporum ovale [2]) | Fungal Growth Microsporum canis (Microsporum canis; 12.5 μg/ml in DMSO) | Fungal Growth Microsporum canis (Microsporum canis; 25 μg/ml in DMSO) | Fungal Growth Microsporum canis (Microsporum canis; 50 μg/ml in DMSO) | Fungal Growth Microsporum canis (Microsporum canis; 100 μg/ml in DMSO) | Fungal Growth Pityrosporum ovale (Pityrosporum ovale [1]; 12.5 μg/ml in DMSO) | Fungal Growth Pityrosporum ovale (Pityrosporum ovale [1]; 25 μg/ml in DMSO) | Fungal Growth Pityrosporum ovale (Pityrosporum ovale [1]; 50 μg/ml in DMSO) | Fungal Growth Pityrosporum ovale (Pityrosporum ovale [1]; 100 μg/ml in DMSO) | Fungal Growth Epidermophyton (Epidermophyton; 12.5 μg/ml in DMSO) | Fungal Growth Epidermophyton (Epidermophyton; 25 μg/ml in DMSO) | Fungal Growth Epidermophyton (Epidermophyton; 50 μg/ml in DMSO) | Fungal Growth Epidermophyton (Epidermophyton; 100 μg/ml in DMSO) | also measured
COC1=CC(=O)C[C@@H](C)[C@]12Oc1c(Cl)c(OC)cc(OC)c1C2=O [Griseofulvin, reference compound] | 250 µg/mL | 250 µg/mL | <125 µg/mL |  |  |  |  |  |  |  |  |  |  |  |  |  | Fungal Growth Microsporum canis (Microsporum canis; 125 μg/ml in DMSO): +/−; Fungal Growth Microsporum canis (Microsporum canis; 250 μg/ml in DMSO): +/−; Fungal Growth Microsporum canis (Microsporum canis; 500 μg/ml in DMSO): −; Fungal Growth Microsporum canis (Microsporum canis; 1000 μg/ml in DMSO): −; Fungal Growth Pityrosporum ovale (Pityrosporum ovale [1]; 125 μg/ml in DMSO): +++; Fungal Growth Pityrosporum ovale (Pityrosporum ovale [1]; 250 μg/ml in DMSO): +++; Fungal Growth Pityrosporum ovale (Pityrosporum ovale [1]; 500 μg/ml in DMSO): ++; Fungal Growth Pityrosporum ovale (Pityrosporum ovale [1]; 1000 μg/ml in DMSO): −; Fungal Growth Epidermophyton (Epidermophyton; 125 μg/ml in DMSO): ++; Fungal Growth Epidermophyton (Epidermophyton; 250 μg/ml in DMSO): +; Fungal Growth Epidermophyton (Epidermophyton; 500 μg/ml in DMSO): −; Fungal Growth Epidermophyton (Epidermophyton; 1000 μg/ml in DMSO): −
C=C(C)C1CCC2(COC(=O)CCCC(=O)O)CCC3(C)C(CCC4C5(C)CCC(O)C(C)(C)C5CCC43C)C12 (stereo not shown) [betulin 28-glutarate] |  |  |  | inhibited the growth |  |  |  |  |  |  |  |  |  |  |  |  | 
C=C(C)[C@@H]1CC[C@]2(COC(=O)CCCC(=O)O)CC[C@]3(C)[C@H](CC[C@@H]4[C@@]5(C)CC[C@H](OC(=O)CCCC(=O)O)C(C)(C)[C@@H]5CC[C@]43C)[C@@H]12 [betulin 3,28-diglutarate] |  |  |  | inhibited the growth |  |  |  |  |  |  |  |  |  |  |  |  | 
CC1(C)CCC23CCC4(C)C(CCC5C6(C)CCC(OC(=O)CCCC(=O)O)C(C)(C)C6CCC54C)C2C1OC3 (stereo not shown) [Allobetulin 3-glutarate] | 25 µg/mL | 25 µg/mL | 9 µg/mL |  | +/− | +/− | − | − | +++ | +++ | ++ | − | ++ | + | + | − | 
CC1(C)CC[C@]23CC[C@]4(C)[C@H](CC[C@@H]5[C@@]6(C)CC[C@H](O)C(C)(C)[C@@H]6CC[C@]54C)[C@H]2[C@H]1OC3 [Allobetulin] |  |  |  | inhibited the growth |  |  |  |  |  |  |  |  |  |  |  |  | Fungal Growth Microsporum canis (Microsporum canis; 9 μg/ml in DMSO): +++; Fungal Growth Microsporum canis (Microsporum canis; 19 μg/ml in DMSO): ++; Fungal Growth Microsporum canis (Microsporum canis; 38 μg/ml in DMSO): ++; Fungal Growth Microsporum canis (Microsporum canis; 75 μg/ml in DMSO): −; Fungal Growth Pityrosporum ovale (Pityrosporum ovale [1]; 9 μg/ml in DMSO): +++; Fungal Growth Pityrosporum ovale (Pityrosporum ovale [1]; 19 μg/ml in DMSO): +++; Fungal Growth Pityrosporum ovale (Pityrosporum ovale [1]; 38 μg/ml in DMSO): ++; Fungal Growth Pityrosporum ovale (Pityrosporum ovale [1]; 75 μg/ml in DMSO): −; Fungal Growth Epidermophyton (Epidermophyton; 9 μg/ml in DMSO): ++; Fungal Growth Epidermophyton (Epidermophyton; 19 μg/ml in DMSO): +; Fungal Growth Epidermophyton (Epidermophyton; 38 μg/ml in DMSO): +; Fungal Growth Epidermophyton (Epidermophyton; 75 μg/ml in DMSO): −
allobetulin L-valine ester |  |  |  | inhibited the growth |  |  |  |  |  |  |  |  |  |  |  |  | 
C=C(C)[C@@H]1CC[C@]2(CO)CC[C@]3(C)[C@H](CC[C@@H]4[C@@]5(C)CC[C@H](O)C(C)(C)[C@@H]5CC[C@]43C)[C@@H]12 [Betulin] | 50 µg/mL |  | 25 µg/mL |  | ++ | + | +/− | − | +++ | +++ | ++ | +/− | + | + | − | − | solubility in water [3]: about 0.15 mg/l
C[C@@H]1[C@H](O)[C@@H](C)/C=C/C=C/CC/C=C/C=C/C=C/C=C/C(O[C@H]2O[C@H](C)[C@@H](O)[C@H](N)[C@@H]2O)CC2O[C@](O)(CC(O)C(O)CCC(O)CC(O)CC(O)CC(=O)O[C@H]1C)CC(O)C2C(=O)O (stereo partly shown) [Nystatin, reference compound] | 250 µg/mL | 250 µg/mL | <125 µg/mL | inhibited |  |  |  |  |  |  |  |  |  |  |  |  | Fungal Growth Microsporum canis (Microsporum canis; 125 μg/ml in DMSO): +; Fungal Growth Microsporum canis (Microsporum canis; 250 μg/ml in DMSO): +/−; Fungal Growth Microsporum canis (Microsporum canis; 500 μg/ml in DMSO): −; Fungal Growth Microsporum canis (Microsporum canis; 1000 μg/ml in DMSO): −; Fungal Growth Pityrosporum ovale (Pityrosporum ovale [1]; 125 μg/ml in DMSO): +; Fungal Growth Pityrosporum ovale (Pityrosporum ovale [1]; 250 μg/ml in DMSO): +/−; Fungal Growth Pityrosporum ovale (Pityrosporum ovale [1]; 500 μg/ml in DMSO): −; Fungal Growth Pityrosporum ovale (Pityrosporum ovale [1]; 1000 μg/ml in DMSO): −; Fungal Growth Epidermophyton (Epidermophyton; 125 μg/ml in DMSO): +/−; Fungal Growth Epidermophyton (Epidermophyton; 250 μg/ml in DMSO): −; Fungal Growth Epidermophyton (Epidermophyton; 500 μg/ml in DMSO): −; Fungal Growth Epidermophyton (Epidermophyton; 1000 μg/ml in DMSO): −
C=C(C)C1CCC2(COC(=O)c3ccccc3C(=O)O)CCC3(C)C(CCC4C5(C)CCC(O)C(C)(C)C5CCC43C)C12 (stereo not shown) [Betulin 28-phthalate] | 50 µg/mL |  | 25 µg/mL |  | ++ | + | − | − | +++ | +++ | ++ | − | +++ | ++ | + | − | 
